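Interpolation was linear, between the two tested concentrations surrounding the appropriate level; five concentrations were tested over 48 hours in 96-well plates. TGI: total growth inhibition.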 Where a SMILES comes first, the peptide text is derived from it. [ ]: non-standard residue; d: D form. The star is where a group is joined. ξ: configuration not given here. NMeY = CN[C@@H](Cc1ccc(O)cc1)C(=O)O; Cbz = O=C(OCc1ccccc1)*; ξA = CC(N)C(=O)O
Tests used:
Test in all cases: NCI anticancer screen, dose series, 48 h
OVCAR-8 ovarian = test system: OVCAR-8 ovarian
HT29 colon = test system: HT29 colon
SF-539 CNS = test system: SF-539 CNS
MDA-MB-231 breast = test system: MDA-MB-231 breast
PC-3 prostate = test system: PC-3 prostate
NCI-H460 lung = test system: NCI-H460 lung
RXF 393 renal = test system: RXF 393 renal
MOLT-4 leukemia = test system: MOLT-4 leukemia
U251 CNS = test system: U251 CNS
SN12C renal = test system: SN12C renal
MDA-N = test system: MDA-N

O=c1[nH][nH]c(=O)n1Cc1ccccc1
TGI (OVCAR-8 ovarian): > 100 µM
TGI (HT29 colon): > 100 µM
TGI (SF-539 CNS): > 100 µM
TGI (MDA-MB-231 breast): > 100 µM
TGI (PC-3 prostate): > 100 µM
TGI (NCI-H460 lung): > 100 µM
TGI (RXF 393 renal): > 100 µM
TGI (MOLT-4 leukemia): > 100 µM
TGI (U251 CNS): > 100 µM
TGI (SN12C renal): > 100 µM
TGI (MDA-N): > 100 µM

O=C1CC(n2ccnc2)c2c(Cl)sc(Cl)c21 (stereo not given)
TGI (OVCAR-8 ovarian): 27.8 µM
TGI (HT29 colon): 43.6 µM
TGI (SF-539 CNS): 35.4 µM
TGI (MDA-MB-231 breast): 36.5 µM
TGI (PC-3 prostate): 36.7 µM
TGI (NCI-H460 lung): > 73.9 µM
TGI (RXF 393 renal): 33.9 µM
TGI (MOLT-4 leukemia): > 24 µM
TGI (U251 CNS): 35.6 µM
TGI (SN12C renal): 37.3 µM
TGI (MDA-N): 50.4 µM

CCOC(=O)/C=C(/C(=O)OCC)n1ccc(=O)n(Cc2cn(CCCCOC(C)=O)nn2)c1=O
TGI (OVCAR-8 ovarian): > 100 µM
TGI (HT29 colon): > 100 µM
TGI (SF-539 CNS): > 100 µM
TGI (MDA-MB-231 breast): > 100 µM
TGI (PC-3 prostate): > 100 µM
TGI (NCI-H460 lung): > 100 µM
TGI (RXF 393 renal): > 100 µM
TGI (MOLT-4 leukemia): > 100 µM
TGI (U251 CNS): > 100 µM
TGI (SN12C renal): > 100 µM
TGI (MDA-N): > 100 µM

COc1ccccc1N1CCN(S(=O)(=O)c2ccc(Cl)cc2)C1=N
TGI (OVCAR-8 ovarian): > 100 µM
TGI (SF-539 CNS): > 100 µM
TGI (MDA-MB-231 breast): > 100 µM
TGI (PC-3 prostate): > 100 µM
TGI (NCI-H460 lung): > 100 µM
TGI (RXF 393 renal): > 100 µM
TGI (MOLT-4 leukemia): > 100 µM
TGI (U251 CNS): > 100 µM
TGI (SN12C renal): > 100 µM
TGI (MDA-N): > 100 µM

COc1ccc(C[C@H]2COC(=O)[C@@H]2Cc2ccc(Br)cc2)cc1OC
TGI (OVCAR-8 ovarian): > 100 µM
TGI (HT29 colon): > 100 µM
TGI (SF-539 CNS): > 100 µM
TGI (MDA-MB-231 breast): 77.2 µM
TGI (PC-3 prostate): 52.1 µM
TGI (NCI-H460 lung): > 100 µM
TGI (RXF 393 renal): > 62.8 µM
TGI (MOLT-4 leukemia): 61.8 µM
TGI (U251 CNS): > 100 µM
TGI (SN12C renal): > 100 µM
TGI (MDA-N): > 100 µM

CC1=CC2(C)C=C[C@@H]1C(=O)[C@@]1(C)CC[C@@](O)(C(C)C)[C@H]1CC2
TGI (OVCAR-8 ovarian): 32.6 µM
TGI (HT29 colon): 32.6 µM
TGI (SF-539 CNS): 35 µM
TGI (MDA-MB-231 breast): 35.5 µM
TGI (PC-3 prostate): 51.9 µM
TGI (NCI-H460 lung): 32.5 µM
TGI (RXF 393 renal): 43.5 µM
TGI (MOLT-4 leukemia): 51.9 µM
TGI (U251 CNS): 33.1 µM
TGI (SN12C renal): 39.4 µM
TGI (MDA-N): 47.5 µM

CCOC(=O)/C(=C\c1c[nH]c2ccccc12)P(=O)(OCC)OCC
TGI (OVCAR-8 ovarian): 53.5 µM
TGI (HT29 colon): 77.5 µM
TGI (SF-539 CNS): 43.6 µM
TGI (MDA-MB-231 breast): 68.4 µM
TGI (PC-3 prostate): 66.6 µM
TGI (NCI-H460 lung): 61.9 µM
TGI (RXF 393 renal): > 100 µM
TGI (MOLT-4 leukemia): > 100 µM
TGI (U251 CNS): > 100 µM
TGI (SN12C renal): > 100 µM
TGI (MDA-N): > 100 µM

COc1ccc(C[C@@H](C(=O)N[C@@H](C)C(N)=O)N(C)C(=O)[C@@H]2CCCN2C(=O)[C@H](CC(C)C)NC(=O)C(C)NC(=O)OCc2ccccc2)cc1 (stereo not given in full) (Cbz-[ξA]LP[NMeY](Me)A-NH2)
TGI (OVCAR-8 ovarian): > 100 µM
TGI (HT29 colon): > 100 µM
TGI (SF-539 CNS): > 100 µM
TGI (MDA-MB-231 breast): > 100 µM
TGI (PC-3 prostate): > 100 µM
TGI (NCI-H460 lung): > 100 µM
TGI (RXF 393 renal): > 100 µM
TGI (MOLT-4 leukemia): > 100 µM
TGI (U251 CNS): > 100 µM
TGI (SN12C renal): > 100 µM
TGI (MDA-N): > 100 µM

CC(=O)Oc1ccc2c(c1)[nH]c1c3ccc(OC(C)=O)cc3oc(=O)c21
TGI (OVCAR-8 ovarian): > 100 µM
TGI (HT29 colon): > 100 µM
TGI (SF-539 CNS): > 100 µM
TGI (MDA-MB-231 breast): 88.2 µM
TGI (PC-3 prostate): > 100 µM
TGI (NCI-H460 lung): > 100 µM
TGI (RXF 393 renal): 68.2 µM
TGI (MOLT-4 leukemia): > 100 µM
TGI (U251 CNS): > 100 µM
TGI (SN12C renal): > 100 µM
TGI (MDA-N): > 100 µM

COc1ccc2nc3cccc([N+](=O)[O-])c3c(NCCC(=O)O)c2c1
TGI (OVCAR-8 ovarian): > 10 µM
TGI (HT29 colon): > 10 µM
TGI (SF-539 CNS): > 10 µM
TGI (MDA-MB-231 breast): > 10 µM
TGI (PC-3 prostate): > 10 µM
TGI (NCI-H460 lung): > 10 µM
TGI (RXF 393 renal): > 10 µM
TGI (MOLT-4 leukemia): > 10 µM
TGI (U251 CNS): > 10 µM
TGI (SN12C renal): > 10 µM
TGI (MDA-N): > 10 µM

CC(CC(=O)N1C2CC3CCC2(CS1(=O)=O)C3(C)C)[Si](C)(C)C (stereo not given)
TGI (OVCAR-8 ovarian): > 100 µM
TGI (HT29 colon): > 100 µM
TGI (SF-539 CNS): > 100 µM
TGI (MDA-MB-231 breast): > 100 µM
TGI (PC-3 prostate): > 100 µM
TGI (NCI-H460 lung): > 100 µM
TGI (RXF 393 renal): > 100 µM
TGI (MOLT-4 leukemia): > 100 µM
TGI (U251 CNS): > 100 µM
TGI (SN12C renal): > 100 µM
TGI (MDA-N): > 100 µM

OC1C2CCCCN2C[C@@H](O)[C@H]1O (stereo not given in full)
TGI (OVCAR-8 ovarian): > 100 µM
TGI (HT29 colon): > 100 µM
TGI (SF-539 CNS): > 100 µM
TGI (MDA-MB-231 breast): > 100 µM
TGI (PC-3 prostate): > 100 µM
TGI (NCI-H460 lung): > 100 µM
TGI (RXF 393 renal): > 100 µM
TGI (MOLT-4 leukemia): > 100 µM
TGI (U251 CNS): > 100 µM
TGI (SN12C renal): > 100 µM
TGI (MDA-N): > 100 µM

Cc1ccc(NC(=O)c2cccc(OP(=O)(Nc3ccc(C)cc3)Nc3ccc(C)cc3)c2)cc1
TGI (OVCAR-8 ovarian): > 100 µM
TGI (HT29 colon): 14.9 µM
TGI (SF-539 CNS): > 100 µM
TGI (MDA-MB-231 breast): 16.1 µM
TGI (PC-3 prostate): > 100 µM
TGI (NCI-H460 lung): > 100 µM
TGI (RXF 393 renal): 6.75 µM
TGI (MOLT-4 leukemia): 6.37 µM
TGI (U251 CNS): > 100 µM
TGI (SN12C renal): > 100 µM
TGI (MDA-N): 21.7 µM

O=[N+]([O-])C(C(Cl)=C(Cl)Cl)=C(N1CCCCC1)N1CCCCC1
TGI (OVCAR-8 ovarian): > 100 µM
TGI (HT29 colon): > 100 µM
TGI (SF-539 CNS): > 100 µM
TGI (MDA-MB-231 breast): > 100 µM
TGI (PC-3 prostate): > 100 µM
TGI (NCI-H460 lung): > 100 µM
TGI (RXF 393 renal): > 100 µM
TGI (MOLT-4 leukemia): > 100 µM
TGI (U251 CNS): > 100 µM
TGI (SN12C renal): > 100 µM
TGI (MDA-N): > 100 µM

CNC(=O)O/N=C1\N(C)CN(c2ccccc2)C12CCN(CCCC(=O)c1ccc(F)cc1)CC2
TGI (OVCAR-8 ovarian): > 100 µM
TGI (HT29 colon): > 100 µM
TGI (SF-539 CNS): > 100 µM
TGI (MDA-MB-231 breast): > 100 µM
TGI (PC-3 prostate): > 100 µM
TGI (NCI-H460 lung): > 100 µM
TGI (RXF 393 renal): > 100 µM
TGI (MOLT-4 leukemia): > 100 µM
TGI (U251 CNS): > 100 µM
TGI (SN12C renal): > 100 µM
TGI (MDA-N): > 100 µM

N#Cc1c(C#N)c(SSc2c(C#N)c(C#N)c(N)n2-c2cccc3ccccc23)n(-c2cccc3ccccc23)c1N
TGI (OVCAR-8 ovarian): > 25.3 µM
TGI (HT29 colon): 39.2 µM
TGI (SF-539 CNS): 35.7 µM
TGI (MDA-MB-231 breast): 40.8 µM
TGI (PC-3 prostate): 35.5 µM
TGI (NCI-H460 lung): > 100 µM
TGI (RXF 393 renal): 17.4 µM
TGI (MOLT-4 leukemia): > 100 µM
TGI (U251 CNS): 40 µM
TGI (SN12C renal): 34.8 µM
TGI (MDA-N): 12.4 µM
